Data reported in patent publication US20070179113A1, “GM-CSF gene therapy for Crohn's disease using an improved regulated expression system” (Schering Aktiengesellachaft, priority 2005, published 2007).
Read-outs that look alike come from different tables or passages of the source.

Key:
[1] = tested on: DSS-induced colitis in Balb/C mice; experiment: DSS-induced colitis model (5% DSS), validation, Disease Activity Index; format: in vivo; conditions: daily treatment, Mesopram/Metronidazole 50 mg/kg IP, mGM-CSF 5 μg non-pegylated, 5 or 10 μg pegylated
Protocol: Disease was induced in BalbC mice (N=10/group) by DSS (5%) applied daily in the drinking water. Mesopram, Metronidazole, or yeast expressed non-pegylated respectively pegylated mGM-CSF, was administered daily over a period of 8 days. Clinical scores (Daily Activity Index (DAI), a cumulative index of: weight loss, stool consistency, and rectal bleeding) were recorded daily.
(§1) Likewise, the DSS-induced mouse colitis model is useful for evaluating therapies for UC, IBD and CD. Disease is induced in mice by daily administration of 5% or 7% dextran sodium sulfate (DSS) in the drinking water over 8 days. Disease progression is monitored by the Daily Activity Index (DAI), a cumulative index of: weight loss, stool consistency, and rectal bleeding, which mimics the symptoms of UC, IBD and/or CD.
vi. DSS-induced colitis model. Prior to the gene delivery study the model was established and validated in Balb/C mice using non-pegylated and pegylated mGM-CSF protein. Disease was induced in Balb/C mice with 5% dextran sodium sulfate (DSS), provided in the drinking water every day over a period of 8 days. As the main endpoint, the Disease Activity Index (DAI, a cumulative index of: weight loss, stool consistency, and rectal bleeding) was recorded daily. […]

[2] = mouse, in vivo
Protocol: (§2) At day 8, the final day of the study, mGM-CSF concentrations were measured in sera of all mice.

[3] = tested on: DSS-induced colitis; experiment: DSS-induced colitis model (7% DSS), proof of concept with pCMV-GMCSF plasmid DNA; format: in vivo, mice; conditions: plasmid single injection day 0 + EP, drugs and protein daily
Protocol: Two concentrations of pCMV-mGMCSF were tested side by side with a control plasmid (pNull) and two mGM-CSF protein formulations, non-pegylated and pegylated in the DSS-induced colitis model (N=10/group). A single plasmid DNA injection was administered at day 0 followed by electroporation. Murine GM-CSF protein was injected s.c. daily. Disease was induced with 7% DSS in the drinking water and clinical scores (DIA) were recorded daily.
as §1
vii. […] In this study the efficacy of pGMCSF plasmid DNA was evaluated side by side with Mesopram, Metronidazole, non-pegylated or pegylated mGM-CSF. The disease was induced using 7% DSS, administered daily in the drinking water. Mesopram, Metronidazole and mGM-CSF protein were administered daily, using the same dosing regimen as described for the validation study. pGMCSF plasmid DNA was injected at day 0 followed by electroporation. […]

[4] = mGM-CSF concentration in sera at day 8 of the DSS colitis study; conditions: final day of DSS study
Protocol: as §2

[5] = tested on: acute EAE in SJL mice; experiment: Mouse acute EAE model, mIFN-β protein; format: in vivo; conditions: IP twice daily; Mesopram 9 mg/kg, Prednisolone 2.5 mg/kg
[6] = biological target: GAL-4 DBS; conditions: read-out: Kd for binding; cited from earlier work

Compound	DAI score [1]	GM-CSF in sera at day 8 [2]	disease scores (DAI) [3]	GM-CSF in sera at day 8 [4]	clinical scores of EAE, positive controls [5]	Kd [6] [nM]
Cc1ncc([N+](=O)[O-])n1CCO [Metronidazole, reference compound]	significantly reduced	not detectable	efficacious	–	–	–
CCCOc1cc([C@]2(C)CNC(=O)O2)ccc1OC [Mesopram, reference compound]	significantly reduced	–	efficacious	not detectable	significantly decreased clinical scores	–
C[C@]12C=CC(=O)C=C1CC[C@@H]1[C@@H]2[C@@H](O)C[C@@]2(C)[C@H]1CC[C@]2(O)C(=O)CO [Prednisolone]	–	–	–	–	significantly decreased clinical scores	–
GAL-4 residues 1-100: N-terminal DNA binding fragment of yeast GAL-4 protein	–	–	–	–	–	3
